# Values of other authors in publication PMC5281649 (European Journal of Nuclear Medicine and Molecular Imaging, 2016).
# Tests used:
# [1] = parameters: method as in doi:10.1016/S0924-977X(99)80017-0; settings: doses providing full blockade of the enzyme; cited from earlier work
# [2] = in vivo; cited from earlier work
# [3] = cited from earlier work
Structure (SMILES),Effect on cognition and functionality in patients with AD [1],Reason development not continued [2],Effect in 2-year trial in patients with moderate AD [3],Long-term effect on cognition in patients with moderate-to-severe AD [3]
NCCNC(=O)c1ccc(Cl)cn1 [lazabemide],significant improvement in cognition and functionality,hepatotoxic liability,,
C#CCN(C)[C@H](C)Cc1ccccc1 [selegiline],,,may delay functional deterioration and disease progression,no long-term benefit on cognition
